Laboratory results from US20070128217A1 (priority 2003, published 2007).

Legend:
[1] = system: control sera (pooled serum of ten healthy LUMC hospital workers; commercial negative donor pooled serum from the Dutch bloodbank); assay type: binding, human; parameters: Binding of Control serum LUMC to linear peptides / Binding of Control serum Blood-bank to linear peptides / Binding of Control serum LUMC to looped peptides / Binding of Control Serum Blood-Bank to Looped peptides / Binding of Control serum LUMC to linear peptides of the protein M of SARS-CoV Urbani / Binding of Control serum Blood-bank to linear peptides of the protein M of SARS-CoV Urbani / Binding of Control serum LUMC to looped peptides of the protein M of SARS-CoV Urbani / Binding of Control Serum Blood-Bank to Looped peptides of the protein M of SARS-CoV Urbani: unit not given here
[2] = system: antibodies in sera from SARS patients (sera 1a, 1b, 2, 6, 37, 62, London, SARS-yellow, SARS-green); assay type: binding, human; parameters: Binding of serum 6 to linear peptides of protein X1 of SARS-CoV Urbani / Binding of serum 37 to linear peptides of protein X1 of SARS-CoV Urbani / Binding of serum 6 to looped/cyclic peptide (PEPSCAN-ELISA) / Binding of serum 37 to looped/cyclic peptide (PEPSCAN-ELISA) / Binding of serum 37 to looped/cyclic peptides of protein X1 of SARS-CoV Urbani / Binding of serum 6 to linear peptides of protein X2 / Binding of serum 37 to linear peptides of protein X2 / Binding of serum 37 to looped/cyclic peptides of protein X2 of SARS-CoV Urbani / Binding of serum 6 to linear peptides of protein M of SARS-CoV Urbani / Binding of serum 37 to linear peptides of protein M of SARS-CoV Urbani / Binding of serum 6 to looped/cyclic peptides of protein M of SARS-CoV Urbani / Binding of serum 37 to looped/cyclic peptides of protein M of SARS-CoV Urbani / Binding of serum 6 to linear peptides of protein X3 of SARS-CoV Urbani / Binding of serum 37 to linear peptides of protein X3 of SARS-CoV Urbani / Binding of serum 37 to looped/cyclic peptides of protein X3 of SARS-CoV Urbani / Binding of serum 6 to linear peptides of protein X4 of SARS-CoV Urbani / Binding of serum 37 to linear peptides of protein X4 of SARS-CoV Urbani / Binding of serum 37 to looped/cyclic peptides of protein X4 of SARS-CoV Urbani / Binding of serum 6 to linear peptides of protein X5 of SARS-CoV Urbani / Binding of serum 37 to linear peptides of protein X5 of SARS-CoV Urbani / Binding of serum 37 to looped/cyclic peptides of protein X5 of SARS-CoV Urbani / Binding of serum 6 to linear peptides of protein N of SARS-CoV Urbani / Binding of serum 37 to linear peptides of protein N of SARS-CoV Urbani / Binding of serum 6 to linear peptide (PEPSCAN-ELISA) / Binding of serum 1a to looped/cyclic peptides of protein N of SARS-CoV Urbani / Binding of serum 1b to looped/cyclic peptides of protein N of SARS-CoV Urbani / Binding of serum 2 to looped/cyclic peptides of protein N of SARS-CoV Urbani / Binding of serum 6 to looped/cyclic peptides of protein N of SARS-CoV Urbani / Binding of serum 37 to looped/cyclic peptides of protein N of SARS-CoV Urbani / Binding of serum 62 to looped/cyclic peptides of protein N of SARS-CoV Urbani / Binding of serum London to looped/cyclic peptides of protein N of SARS-CoV Urbani / Binding of serum SARS-green to looped/cyclic peptides of protein N of SARS-CoV Urbani: unit not given here
[3] = system: rabbit serum obtained by immunizing a rabbit with the SARS-CoV strain Frankfurt 1; assay type: binding; parameters: Binding of a rabbit serum to linear peptides / Binding of a rabbit serum to looped peptides / Rabbit serum linear peptides / Rabbit serum looped peptides / Binding of a rabbit serum to linear peptides of protein N of SARS-CoV Urbani (Rabbit serum linear peptides) / Binding of a rabbit serum to looped/cyclic peptides of protein N of SARS-CoV Urbani (Rabbit serum looped peptides): unit not given here
[4] = system: recombinant human anti-SARS-CoV antibody 03-018; assay type: binding; parameters: Binding of antibody 03-018 to linear peptides of the N protein of SARS-CoV Urbani / Binding of antibody 03-018 to looped/cyclic peptides of the N protein of SARS-CoV Urbani: unit not given here

GSRGGSQASSRSSSR
Binding of Control Serum Blood-Bank to Looped peptides [1]: 1.1 | Binding of Control serum Blood-bank to linear peptides [1]: 0.7 | Binding of Control serum LUMC to linear peptides [1]: 0.7 | Binding of Control serum LUMC to looped peptides [1]: 0.7 | Binding of serum 1a to linear peptide (PEPSCAN-ELISA) [2]: 0.3 | Binding of serum 1a to looped/cyclic peptides of protein N of SARS-CoV Urbani [2]: 0.6 | Binding of serum 1b to linear peptide (PEPSCAN-ELISA) [2]: 0.1 | Binding of serum 1b to looped/cyclic peptides of protein N of SARS-CoV Urbani [2]: 0.8 | Binding of serum 2 to linear peptide (PEPSCAN-ELISA) [2]: 0.3 | Binding of serum 2 to looped/cyclic peptides of protein N of SARS-CoV Urbani [2]: 0.7 | Binding of serum 6 to linear peptide (PEPSCAN-ELISA) [2]: 0.4 | Binding of serum 6 to looped/cyclic peptides of protein N of SARS-CoV Urbani [2]: 0.5 | Binding of serum 37 to linear peptide (PEPSCAN-ELISA) [2]: 0.7 | Binding of serum 37 to looped/cyclic peptides of protein N of SARS-CoV Urbani [2]: 0.9 | Binding of serum 62 to linear peptide (PEPSCAN-ELISA) [2]: 0.8 | Binding of serum 62 to looped/cyclic peptides of protein N of SARS-CoV Urbani [2]: 0.7 | Binding of serum London to linear peptide (PEPSCAN-ELISA) [2]: 0.5 | Binding of serum London to looped/cyclic peptides of protein N of SARS-CoV Urbani [2]: 0.7 | Binding of serum SARS-green to linear peptide (PEPSCAN-ELISA) [2]: 0.2 | Binding of serum SARS-green to looped/cyclic peptides of protein N of SARS-CoV Urbani [2]: 1.2 | Binding of serum SARS-yellow to linear peptide (PEPSCAN-ELISA) [2]: 0.8 | Binding of serum SARS-yellow to looped/cyclic peptides of protein N of SARS-CoV Urbani [2]: 1.6 | Binding of a rabbit serum to linear peptides of protein N of SARS-CoV Urbani (Rabbit serum linear peptides) [3]: 0.3 | Binding of a rabbit serum to looped/cyclic peptides of protein N of SARS-CoV Urbani (Rabbit serum looped peptides) [3]: 0.6 | Binding of antibody 03-018 to linear peptides of the N protein of SARS-CoV Urbani [4]: 0.1 | Binding of antibody 03-018 to looped/cyclic peptides of the N protein of SARS-CoV Urbani [4]: 0.2

GTDYKHWPQIAQFAP
Control Serum Blood-Bank Looped peptides [1]: 0.8 | Control serum Blood-bank linear peptides [1]: 0.8 | Control serum LUMC linear peptides [1]: 0.6 | Control serum LUMC looped peptides [1]: 0.7 | Binding of serum 1a to linear peptides of protein N of SARS-CoV Urbani [2]: 0.3 | Binding of serum 1a to looped/cyclic peptides of protein N of SARS-CoV Urbani [2]: 0.5 | Binding of serum 1b to linear peptides of protein N of SARS-CoV Urbani [2]: 0.1 | Binding of serum 1b to looped/cyclic peptides of protein N of SARS-CoV Urbani [2]: 0.3 | Binding of serum 2 to linear peptides of protein N of SARS-CoV Urbani [2]: 0.2 | Binding of serum 2 to looped/cyclic peptides of protein N of SARS-CoV Urbani [2]: 0.5 | Binding of serum 6 to linear peptides of protein N of SARS-CoV Urbani [2]: 0.2 | Binding of serum 6 to looped/cyclic peptides of protein N of SARS-CoV Urbani [2]: 0.3 | Binding of serum 37 to linear peptides of protein N of SARS-CoV Urbani [2]: 0.7 | Binding of serum 37 to looped/cyclic peptides of protein N of SARS-CoV Urbani [2]: 0.7 | Binding of serum 62 to linear peptides of protein N of SARS-CoV Urbani [2]: 0.8 | Binding of serum 62 to looped/cyclic peptides of protein N of SARS-CoV Urbani [2]: 0.7 | Binding of serum London to linear peptides of protein N of SARS-CoV Urbani [2]: 0.6 | Binding of serum London to looped/cyclic peptides of protein N of SARS-CoV Urbani [2]: 0.5 | Binding of serum SARS-green to linear peptides of protein N of SARS-CoV Urbani [2]: 0.6 | Binding of serum SARS-yellow to linear peptides of protein N of SARS-CoV Urbani [2]: 0.7 | Binding of serum SARS-yellow to looped/cyclic peptides of protein N of SARS-CoV Urbani [2]: 0.7 | Binding of a rabbit serum to linear peptides of protein N of SARS-CoV Urbani (Rabbit serum linear peptides) [3]: 0.2 | Binding of a rabbit serum to looped/cyclic peptides of protein N of SARS-CoV Urbani (Rabbit serum looped peptides) [3]: 0.5 | Binding of antibody 03-018 to linear peptides of the N protein of SARS-CoV Urbani [4]: 0.1 | Binding of antibody 03-018 to looped/cyclic peptides of the N protein of SARS-CoV Urbani [4]: 0.2
